# Assay results: patent publication US20200262869A1, “PEPTIDE ANTIBIOTIC COMPLEXES AND METHODS OF USE THEREOF” (GENENTECH, INC., priority 2017, published 2020)
# Read-outs that look alike come from different tables or passages of the source.
# Assays:
# A. baumannii ATCC 17978 = experiment: MIC, broth microdilution; format: cell-based; settings: Acinetobacter baumannii, ATCC17978, read-out: MIC
# Description: (§1) Minimum Inhibitory Concentration (MIC). MICs were determined by performing two-fold serial dilutions of compound in Mueller Hinton II cation-adjusted broth to a final volume of 0.1 m1 in round-bottom 96-well assay plates (Corning Life Sciences No 3788). Each well was inoculated with 5×10^5 CFU/ml and incubated at 37° C. without agitation for 18 hours. Plates were scored by eye, and the lowest compound concentration preventing visible growth was determined to be the MIC.
# C. werkmanii ATCC 51114 = experiment: MIC, broth microdilution; format: cell-based; settings: Citrobacter werkmanii, ATCC51114, read-out: MIC
# Description: as §1
# E. aerogenes ATCC 13408 = experiment: MIC, broth microdilution; format: cell-based; settings: Klebsiella aerogenes, ATCC13408, read-out: MIC
# Description: as §1
# E. cloacae ATCC 13407 = experiment: MIC, broth microdilution; format: cell-based; settings: Enterobacter cloacae, ATCC13407, read-out: MIC
# Description: as §1
# E. coli ATCC 25922 [1] = experiment: MIC, broth microdilution; format: cell-based
# Description: as §1
# K. pneumoniae ATCC 43816 = experiment: MIC, broth microdilution; format: cell-based
# Description: as §1
# P. aeruginosa ATCC 27853 = experiment: MIC, broth microdilution; format: cell-based; settings: Pseudomonas aeruginosa, ATCC27853, read-out: MIC
# Description: as §1
# S. marcescens CDC4385-74 = experiment: MIC, broth microdilution; format: cell-based; settings: Serratia marcescens, CDC438574, read-out: MIC
# Description: as §1
# [2] = tested on: 49 multidrug resistant clinical isolates of E. coli and K. pneumoniae; experiment: MIC against CDC challenge panel of 49 multidrug resistant clinical isolates; format: cell-based; settings: CDC challenge set
# Description: To better assess the ability of G0775 to circumvent specific resistance mechanisms, a single MDR isolate, CDC 0106, was focused on. […] Chromosomal mutations associated with high level quinolone resistance and polymyxin resistance were also identified (FIGS. 10A-10B). Importantly, the elements encoded by CDC 0106 confer resistance to nearly all available antibiotic classes (Table 2).
# as §1
# E. coli ATCC 25922 [3] = experiment: Time-kill; format: cell-based; settings: E. coli ATCC 25922, across a 24 hour period
# From the text: FIG. 5. […] Colony forming units (CFU) per mL data shown is an average of at least three independent experiments with error bars representing the SD.
# E. coli ATCC 25922 [4] = experiment: Frequency of resistance (FOR); format: cell-based; settings: G0775 at 8-fold the MIC; limit of detection 10^−10
# Description: (§2) 20 independent colonies from each bacterial species were scraped and used to establish an overnight culture. Bacteria were concentrated by centrifugation, and approximately 3×10^9 CFUs were spread on cation adjusted Mueller Hinton agarose (MHA) plates containing G0775 at 2- to 8-times the MIC. The MHA plates were prepared from Mueller Hinton II cation adjusted broth (BBL™ 212322) and SeaKem LE Agarose (17 g/L; Lonza) as per manufactures instructions. Resistance frequency for each strain was calculated by dividing the number of colonies formed after a 48 hour incubation at 37° C. by the initial viable cell count.
# P. aeruginosa PAO1 = experiment: Frequency of resistance (FOR); format: cell-based; settings: further 2-fold increase over 8-fold the MIC (16-fold MIC)
# Description: as §2
# [5] = molecular target: T1, full length recombinant LepB from E. coli (Escherichia coli, UniProt P00803); experiment: LepB kinetic enzyme assay (fluorogenic peptide substrate); format: biochemical
# T1 construct: 500 pM full length recombinant LepB from E. coli
# Description: A 20 μL reaction in PBS (pH 7.4) containing 0.1% Triton X-100 was initiated by adding 500 pM full length recombinant LepB from E. coli to a 384-well polypropylene assay plate (Thermo Scientific) containing indicated concentration of G0775 and 10 uM fluorogenic peptide substrate Dabcyl-DAP-PAKAAE-Edans (SEQ ID NO: 6) (GL Biochem, Boston, Mass.). Substrate cleavage separates the Dabcyl quencher from the Edans fluorophore, resulting in 490 nm fluorescence (340 nm excitation). The reaction was read kinetically using a pherastar plate reader (BMG Labtech), and curves were fit to a 2-step irreversible binding model using Dynafit software (BioKin Ltd.) to determine Kinact/KI binding constants.
# A. baumannii 17978 = experiment: Neutropenic thigh infection model in mice; format: in vivo; settings: required a higher concentration of antibiotic; subcutaneous BID
# Description: (§3) CD1 mice (Charles River Laboratories) were rendered neutropenic by 2 intraperitoneal injections of Cytoxan (Baxter Health Care Corporation) at 150 mg/kg on Day -5 and 100 mg/kg on Day -2. On day 0, 50 ul log-phase grown bacteria, K. pneumoniae (ATCC 43816) 1×10^5 CFU/mouse, E. coli (ATCC 25922) 1×10^5 CFU/mouse, P. aeruginosa (ATCC 27853) 1×10^6 CFU/mouse, or A. baumannii (ATCC 17978) 1×10^5 CFU/mouse, were injected into the mouse thigh muscle. At 2 and 11 hours post infection, […] was given at indicated dose subcutaneously. At 20 hours post infection, CFU was determined in the thigh muscle through serial dilutions.
# [6] = tested on: E. coli strain ATCC 25922; experiment: Neutropenic thigh infection model in mice; format: in vivo; settings: 1 mg/kg subcutaneously BID at 2 and 11 h, 20 h post infection
# Description: as §3
# [7] = tested on: K. pneumoniae strain ATCC 43816; experiment: Neutropenic thigh infection model in mice; format: in vivo; settings: 5 mg/kg subcutaneously BID at 2 and 11 h, 20 h post infection
# Description: as §3
# P. aeruginosa 27853 = experiment: Neutropenic thigh infection model in mice; format: in vivo; settings: required a higher concentration of antibiotic; subcutaneous BID
# Description: as §3
# [8] = tested on: K. pneumoniae strain ATCC 43816; experiment: Mucin peritonitis survival study in mice; format: in vivo; settings: 5 mg/kg BID subcutaneously on day of infection; out to 84 hours
# Description: CD1 mice (Charles River Laboratories) were infected through intraperitoneal injection of 0.4 mL K. pneumoniae (ATCC 43816) at 3×10^5 CFU/mouse in 5% mucin (Sigma M1778). At 2 and 11 hours post infection, G0775 was given at the indicated dose subcutaneously. Ciprofloxacin (Claris Lifesciences Inc.) was dosed at 80 mg/kg subcutaneously once at 2 hour post infection. Mice were monitored for body conditioning and survival until 84 hours post infection.
smiles,measurement,setting,value
Cc1nc(-c2ccc(C(C)(C)C)cc2)ncc1C(=O)NC(CCN)C(=O)N(C)C1C(=O)NC(C)C(=O)NC(C(=O)NCC#N)Cc2ccc(OCCN)c(c2)-c2cc1ccc2OCCN (centres unmarked) [G0775],MIC,A. baumannii ATCC 17978,1 µg/mL
same,MIC,C. werkmanii ATCC 51114,0.125 µg/mL
same,MIC,E. aerogenes ATCC 13408,0.125 µg/mL
same,MIC,E. cloacae ATCC 13407,0.25 µg/mL
same,potency relative to arylomycin A-C16,"E. coli ATCC 25922 [1]; E. coli, more potent than arylomycin A-C16",> 500 fold
same,MIC,"E. coli ATCC 25922 [1]; Escherichia coli, ATCC25922, E. coli ATCC 25922, read-out: MIC",0.125 µg/mL
same,potency relative to arylomycin A-C16,"K. pneumoniae ATCC 43816; K. pneumoniae, more potent than arylomycin A-C16",> 500 fold
same,MIC,"K. pneumoniae ATCC 43816; Klebsiella pneumoniae, ATCC43816, K. pneumoniae ATCC 43816, read-out: MIC",0.125 µg/mL
same,MIC,P. aeruginosa ATCC 27853,4 µg/mL
same,MIC,S. marcescens CDC4385-74,0.125 µg/mL
same,activity against panel of 49 multidrug resistant clinical isolates (MIC),[2],maintains its potent activity against all 49 isolates
same,reduction of the number of viable bacteria (time-dependent killing),E. coli ATCC 25922 [3],over 6 orders of magnitude
same,frequency of resistance (FOR),E. coli ATCC 25922 [4],below the limit of detection
same,frequency of resistance (FOR),P. aeruginosa PAO1,< 10^−10
same,kinact/KI,[5]; full-length LepB embedded in a detergent micelle,1.59e+06 M⁻¹ s⁻¹
same,Ki,"[5]; full-length LepB embedded in a detergent micelle, read-out: KI (prechemistry binding)",0.44 nM
same,kinact,[5]; read-out: kinact (irreversible inactivation),0.0007 s⁻¹
same,kinact,"[5]; three independent experiments, read-out: Kinact",0.0007 ± 0.0002 s⁻¹
same,efficacy in neutropenic thigh model,A. baumannii 17978,efficacious
same,decrease in CFU (bactericidal activity),[6],> 2 log
same,decrease in CFU (bactericidal activity),[7],> 2 log
same,efficacy in neutropenic thigh model,P. aeruginosa 27853,efficacious
same,survival (animal viability),[8],full animal viability
